Results on twelve compounds are retold here after article PMC9488889, “Insight into mode-of-action and structural determinants of the compstatin family of clinical complement inhibitors” (Nature Communications, 2022).

Where two headings read alike, the source gives them in different places. Bridge positions count the residues as written; N and C are the ends. Square brackets hold non-standard residues; d marks the D form. Peptide text beside a SMILES is read from it. Trp(1-Me) = Cn1cc(C[C@H](N)C(=O)O)c2ccccc21; NMeI = CC[C@H](C)[C@H](NC)C(=O)O; Sar = CNCC(=O)O

The target of this assay is T1, C3b (Homo sapiens, UniProt P01024).
T1 construct: the α’NT, MG6^α−8, anchor, and C-terminal complement (CTC) domains of the α-chain that are all shared between C3c and C3b; purchased Complement Technology (Tyler, TX, USA)
Description: SPR kinetic binding studies on immobilized C3b. The conditions noted are these: for kd: Suppl. Fig. 7e, Cp40 analogs at position 5, three SPR experiments. As for the experimental part:
All compstatin analogues were characterized concerning affinity and kinetic profiles by surface plasmon resonance (SPR) using a Biacore T200 instrument (Cytiva, Piscataway, USA). Experiments were run at 25 °C in HBST buffer (10 mM HEPES, 150 mM NaCl, 0.05% Tween-20, pH 7.4). C3b was immobilized on a carboxymethyl dextran hydrogel chip (CMD200; XanTec, Düsseldorf, Germany) using standard amine coupling in sodium acetate buffer pH 4.5 at a flow rate of 10 µl/min. Immobilization densities of 8000 and 4000 resonance units (RU) were achieved on separate flow cells. A reference flow cell was activated with the same method (NHS/EDC). All active sites were inactivated and blocked with ethanolamine. A single cycle approach at a flow rate of 30 µl/min was used for kinetic analysis by injecting five increasing concentrations of each compound (0.5–40 nM) consecutively without regeneration in-between injections. Individual injections within a cycle were 120 s long with a 60 sec dissociation phase between injections. After the highest concentration of each derivative, a dissociation period of 6,000–14,400 sec was added to ensure complete dissociation in absence of suitable regeneration method. […] Signals from the reference cell from an ensemble of buffer blank injections were subtracted to correct for buffer effects and injection artefacts. Kinetic data was processed with the Biacore T200 Software (version 3.1; Cytiva) using a single-cycle evaluation setup by global fitting each data set to a 1:1 Langmuir binding model. Association and dissociation rate constants (ka and kd, respectively) were fitted, and the equilibration constant KD was calculated based on the following equation: KD = kd/ka. Each assay was performed at least twice and in duplicate injections.
(In general: Surface plasmon resonance follows binding to a sensor surface in real time, without labels.)

[1] abbreviates: Table 1, amine-reactive immobilized C3b, 25 °C, average±SD of three independent SPR experiments, read-out: KD.
[2] abbreviates: pH 7.4, read-out: ka, Dataset 1.
The mark [3] stands for this setting: pH 7.4, read-out: ka, Dataset 2.
The mark [4] stands for this setting: pH 7.4, read-out: ka, Dataset 3.
Where [5] appears, read: source data of Table 1, single SPR dataset 1, read-out: KD, Dataset 1.
The mark [6] stands for this setting: source data of Table 1, single SPR dataset 2, read-out: KD, Dataset 2.
Setting [7] is: source data of Table 1, single SPR dataset 3, read-out: KD, Dataset 3.

T1 sequence (P01024 23-667 limits assumed): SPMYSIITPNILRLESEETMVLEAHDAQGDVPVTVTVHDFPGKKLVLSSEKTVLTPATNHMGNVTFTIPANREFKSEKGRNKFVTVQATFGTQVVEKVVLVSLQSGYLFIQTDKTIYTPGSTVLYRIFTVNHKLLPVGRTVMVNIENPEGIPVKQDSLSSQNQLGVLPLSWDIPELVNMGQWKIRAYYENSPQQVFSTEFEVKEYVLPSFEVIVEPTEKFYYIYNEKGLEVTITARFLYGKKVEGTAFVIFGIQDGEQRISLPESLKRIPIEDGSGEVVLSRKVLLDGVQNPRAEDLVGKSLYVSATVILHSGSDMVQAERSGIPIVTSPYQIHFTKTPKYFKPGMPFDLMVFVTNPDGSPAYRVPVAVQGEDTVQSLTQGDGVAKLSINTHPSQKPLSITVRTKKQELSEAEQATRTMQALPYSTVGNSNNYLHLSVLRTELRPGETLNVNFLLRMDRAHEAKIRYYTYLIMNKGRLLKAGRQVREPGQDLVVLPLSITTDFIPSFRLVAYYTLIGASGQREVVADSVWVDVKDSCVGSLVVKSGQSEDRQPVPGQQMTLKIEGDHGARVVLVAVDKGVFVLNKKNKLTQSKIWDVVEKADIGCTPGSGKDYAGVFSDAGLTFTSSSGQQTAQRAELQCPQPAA
T1 sequence (P01024 749-1663 limits assumed): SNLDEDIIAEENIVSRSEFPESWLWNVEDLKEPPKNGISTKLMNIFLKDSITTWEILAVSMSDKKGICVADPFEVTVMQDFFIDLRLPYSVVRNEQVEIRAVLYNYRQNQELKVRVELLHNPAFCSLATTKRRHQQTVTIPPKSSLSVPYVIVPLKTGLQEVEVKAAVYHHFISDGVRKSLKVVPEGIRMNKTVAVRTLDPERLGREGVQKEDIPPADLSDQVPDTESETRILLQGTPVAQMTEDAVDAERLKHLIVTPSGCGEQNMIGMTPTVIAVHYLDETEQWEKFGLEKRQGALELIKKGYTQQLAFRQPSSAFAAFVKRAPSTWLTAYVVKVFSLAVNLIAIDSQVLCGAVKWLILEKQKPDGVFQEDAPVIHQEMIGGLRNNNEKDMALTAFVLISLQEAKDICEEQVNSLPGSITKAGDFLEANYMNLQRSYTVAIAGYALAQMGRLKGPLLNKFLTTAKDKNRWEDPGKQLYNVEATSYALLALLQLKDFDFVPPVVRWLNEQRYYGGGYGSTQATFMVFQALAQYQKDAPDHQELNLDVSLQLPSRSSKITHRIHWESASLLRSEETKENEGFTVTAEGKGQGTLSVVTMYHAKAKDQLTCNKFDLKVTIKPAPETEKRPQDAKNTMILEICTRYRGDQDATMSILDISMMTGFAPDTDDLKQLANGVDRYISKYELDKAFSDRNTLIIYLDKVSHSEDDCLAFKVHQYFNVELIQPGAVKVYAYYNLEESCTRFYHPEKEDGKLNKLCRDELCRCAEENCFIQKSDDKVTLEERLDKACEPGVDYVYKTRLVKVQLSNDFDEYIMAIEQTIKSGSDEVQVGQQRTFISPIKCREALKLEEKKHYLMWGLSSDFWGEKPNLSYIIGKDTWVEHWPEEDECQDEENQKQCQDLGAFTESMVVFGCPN

As to `CC[C@H](C)[C@H](NC(=O)[C@H](N)Cc1ccc(O)cc1)C(=O)N[C@H]1CSSC[C@@H](C(=O)N(C)[C@H](C(N)=O)[C@@H](C)CC)NC(=O)[C@H](CCCNC(=N)N)NC(=O)[C@H](Cc2c[nH]cn2)NC(=O)[C@H](C)NC(=O)CN(C)C(=O)[C@H](Cc2c[nH]c3ccccc23)NC(=O)[C@H](CC(=O)O)NC(=O)[C@H](CCC(N)=O)NC(=O)[C@H](Cc2cn(CCC(C)C)c3ccccc23)NC(=O)[C@H](C(C)C)NC1=O` [1(3Me)BuW], the kd was 0.7 ± 0.0 10-3 s-1. For the same compound, the kon (pH 7.4, read-out: ka) came to 200000 M⁻¹ s⁻¹.
As for `CCCCn1cc(C[C@@H]2NC(=O)[C@H](C(C)C)NC(=O)[C@@H](NC(=O)[C@@H](NC(=O)[C@H](N)Cc3ccc(O)cc3)[C@@H](C)CC)CSSC[C@@H](C(=O)N(C)[C@H](C(N)=O)[C@@H](C)CC)NC(=O)[C@H](CCCNC(=N)N)NC(=O)[C@H](Cc3c[nH]cn3)NC(=O)[C@H](C)NC(=O)CN(C)C(=O)[C@H](Cc3c[nH]c4ccccc34)NC(=O)[C@H](CC(=O)O)NC(=O)[C@H](CCC(N)=O)NC2=O)c2ccccc21` [1BuW], the kd was 0.5 ± 0.2 10-3 s-1. Besides, for the setting “pH 7.4, read-out: ka”, the kon is 200000 M⁻¹ s⁻¹.
For the compound `CC[C@H](C)[C@H](NC(=O)[C@H](N)Cc1ccc(O)cc1)C(=O)N[C@H]1CSSC[C@@H](C(=O)N(C)[C@H](C(N)=O)[C@@H](C)CC)NC(=O)[C@H](CCCNC(=N)N)NC(=O)[C@H](Cc2c[nH]cn2)NC(=O)[C@H](C)NC(=O)CN(C)C(=O)[C@H](Cc2c[nH]c3ccccc23)NC(=O)[C@H](CC(=O)O)NC(=O)[C@H](CCC(N)=O)NC(=O)[C@H](Cc2cn(CC)c3ccccc23)NC(=O)[C@H](C(C)C)NC1=O` [1EtW], the kd is 1.2 ± 0.3 10-3 s-1. Further, the kon (pH 7.4, read-out: ka) amounted to 700000 ± 300000 M⁻¹ s⁻¹.
The term Kd denotes a measure of binding affinity in units of concentration. `CC[C@H](C)[C@H](NC(C)=O)C(=O)N[C@H]1CSSC[C@@H](C(=O)N(C)[C@H](C(N)=O)[C@@H](C)CC)NC(=O)[C@H](CCCNC(=N)N)NC(=O)[C@H](Cc2c[nH]cn2)NC(=O)[C@H](C)NC(=O)CN(C)C(=O)[C@H](Cc2c[nH]c3ccccc23)NC(=O)[C@H](CC(=O)O)NC(=O)[C@H](CCC(N)=O)NC(=O)[C@H](Cc2cn(C)c3ccccc23)NC(=O)[C@H](C(C)C)NC1=O` [Cp20, reference compound]: the Kd was found to be 3.4 ± 0.6 nM under setting [1], 3.78 nM under setting [5], 2.6 nM under setting [6] and 3.76 nM under setting [7]. For the same compound, the kon is, setting by setting: (pH 7.4, read-out: ka) 1.3e+06 ± 300000 M⁻¹ s⁻¹; under setting [2], 1.63e+06 M⁻¹ s⁻¹; under setting [3], 1.23e+06 M⁻¹ s⁻¹; under setting [4], 960000 M⁻¹ s⁻¹.
Regarding `CC[C@H](C)[C@H](NC(=O)[C@H](N)Cc1ccc(O)cc1)C(=O)N[C@H]1CSSC[C@@H](C(=O)N(C)[C@H](C(N)=O)[C@@H](C)CC)NC(=O)[C@H](CCCNC(=N)N)NC(=O)[C@H](Cc2c[nH]cn2)NC(=O)[C@H](C)NC(=O)CN(C)C(=O)[C@H](Cc2c[nH]c3ccccc23)NC(=O)[C@H](CC(=O)O)NC(=O)[C@H](CCC(N)=O)NC(=O)[C@H](Cc2c[nH]c3ccccc23)NC(=O)[C@H](C(C)C)NC1=O` [Cp40 (1MeW)5 W], the kon turned out to be 200000 M⁻¹ s⁻¹ (pH 7.4, read-out: ka); 130000 M⁻¹ s⁻¹ under setting [2]; 150000 M⁻¹ s⁻¹ under setting [3]; 180000 M⁻¹ s⁻¹ under setting [4].
For `CC[C@H](C)[C@H](NC(=O)[C@H](N)Cc1ccc(O)cc1)C(=O)N[C@H]1CSSC[C@@H](C(=O)N(C)[C@H](C(N)=O)[C@@H](C)CC)NC(=O)[C@H](CCCNC(=N)N)NC(=O)[C@H](Cc2c[nH]cn2)NC(=O)[C@H](C)NC(=O)CN(C)C(=O)[C@H](Cc2c[nH]c3ccccc23)NC(=O)[C@H](CCC(=O)O)NC(=O)[C@H](CCC(N)=O)NC(=O)[C@H](Cc2cn(C)c3ccccc23)NC(=O)[C@H](C(C)C)NC1=O` [Cp40 D7E] (H-[dY]ICV[Trp(1-Me)]QEW[Sar]AHRC[NMeI]-NH2; disulfide 3-13), the kon by setting is: (pH 7.4, read-out: ka) 900000 ± 200000 M⁻¹ s⁻¹; under setting [2], 1.17e+06 M⁻¹ s⁻¹; under setting [3], 650000 M⁻¹ s⁻¹; under setting [4], 730000 M⁻¹ s⁻¹.
Consider `CC[C@H](C)[C@H](NC(=O)[C@H](N)Cc1ccc(O)cc1)C(=O)N[C@H]1CSSC[C@@H](C(=O)N(C)[C@H](C(N)=O)[C@@H](C)CC)NC(=O)[C@H](CO)NC(=O)[C@H](Cc2c[nH]cn2)NC(=O)[C@H](C)NC(=O)CN(C)C(=O)[C@H](Cc2c[nH]c3ccccc23)NC(=O)[C@H](CO)NC(=O)[C@H](CCC(N)=O)NC(=O)[C@H](Cc2cn(C)c3ccccc23)NC(=O)[C@H](C(C)C)NC1=O` [Cp40 D7S/R12S] (H-[dY]ICV[Trp(1-Me)]QSW[Sar]AHSC[NMeI]-NH2; disulfide 3-13), for which the Kd reads like this: under setting [1], 59.1 ± 41.3 nM; under setting [5], 117 nM; under setting [6], 34.7 nM; under setting [7], 25.5 nM. Also, the kon reads like this: (pH 7.4, read-out: ka) 100000 M⁻¹ s⁻¹; under setting [2], 20000 M⁻¹ s⁻¹; under setting [3], 120000 M⁻¹ s⁻¹; under setting [4], 220000 M⁻¹ s⁻¹.
As to `CC[C@H](C)[C@H](NC(=O)[C@H](N)Cc1ccc(O)cc1)C(=O)N[C@H]1CSSC[C@@H](C(=O)N(C)[C@H](C(N)=O)[C@@H](C)CC)NC(=O)[C@H](CCCNC(=N)N)NC(=O)[C@H](Cc2c[nH]cn2)NC(=O)[C@H](C)NC(=O)CN(C)C(=O)[C@H](Cc2c[nH]c3ccccc23)NC(=O)[C@H](CO)NC(=O)[C@H](CCC(N)=O)NC(=O)[C@H](Cc2cn(C)c3ccccc23)NC(=O)[C@H](C(C)C)NC1=O` [Cp40 D7S] (H-[dY]ICV[Trp(1-Me)]QSW[Sar]AHRC[NMeI]-NH2; disulfide 3-13), the Kd under setting [1] came to 5.6 ± 1.3 nM, the Kd under setting [5] turned out to be 4.85 nM, the Kd under setting [6] came out at 7.48 nM and the Kd under setting [7] worked out at 4.45 nM. The kon reads like this: (pH 7.4, read-out: ka) 100000 M⁻¹ s⁻¹; under setting [2], 80000 M⁻¹ s⁻¹; under setting [3], 50000 M⁻¹ s⁻¹; under setting [4], 170000 M⁻¹ s⁻¹.
Consider `CC[C@H](C)[C@H](NC(=O)[C@H](N)Cc1ccc(O)cc1)C(=O)N[C@H]1CSSC[C@@H](C(=O)N(C)[C@H](C(N)=O)[C@@H](C)CC)NC(=O)[C@H](CCCNC(N)=O)NC(=O)[C@H](Cc2c[nH]cn2)NC(=O)[C@H](C)NC(=O)CN(C)C(=O)[C@H](Cc2c[nH]c3ccccc23)NC(=O)[C@H](CC(=O)O)NC(=O)[C@H](CCC(N)=O)NC(=O)[C@H](Cc2cn(C)c3ccccc23)NC(=O)[C@H](C(C)C)NC1=O` [Cp40 R12Cit], for which the kon by setting is: (pH 7.4, read-out: ka) 600000 ± 100000 M⁻¹ s⁻¹; under setting [2], 320000 M⁻¹ s⁻¹; under setting [3], 670000 M⁻¹ s⁻¹; under setting [4], 790000 M⁻¹ s⁻¹.
As to `CC[C@H](C)[C@H](NC(=O)[C@H](N)Cc1ccc(O)cc1)C(=O)N[C@H]1CSSC[C@@H](C(=O)N(C)[C@H](C(N)=O)[C@@H](C)CC)NC(=O)[C@H](CCCCN)NC(=O)[C@H](Cc2c[nH]cn2)NC(=O)[C@H](C)NC(=O)CN(C)C(=O)[C@H](Cc2c[nH]c3ccccc23)NC(=O)[C@H](CC(=O)O)NC(=O)[C@H](CCC(N)=O)NC(=O)[C@H](Cc2cn(C)c3ccccc23)NC(=O)[C@H](C(C)C)NC1=O` [Cp40 R12K] (H-[dY]ICV[Trp(1-Me)]QDW[Sar]AHKC[NMeI]-NH2; disulfide 3-13), the kon by setting is: under setting [2], 630000 M⁻¹ s⁻¹; under setting [3], 470000 M⁻¹ s⁻¹; under setting [4], 780000 M⁻¹ s⁻¹.
In the case of `CC[C@H](C)[C@H](NC(=O)[C@H](N)Cc1ccc(O)cc1)C(=O)N[C@H]1CSSC[C@@H](C(=O)N(C)[C@H](C(N)=O)[C@@H](C)CC)NC(=O)[C@H](CO)NC(=O)[C@H](Cc2c[nH]cn2)NC(=O)[C@H](C)NC(=O)CN(C)C(=O)[C@H](Cc2c[nH]c3ccccc23)NC(=O)[C@H](CC(=O)O)NC(=O)[C@H](CCC(N)=O)NC(=O)[C@H](Cc2cn(C)c3ccccc23)NC(=O)[C@H](C(C)C)NC1=O` [Cp40 R12S] (H-[dY]ICV[Trp(1-Me)]QDW[Sar]AHSC[NMeI]-NH2; disulfide 3-13), the Kd is 9.9 ± 0.5 nM under setting [1], 10.2 nM under setting [5], 10.3 nM under setting [6] and 9.22 nM under setting [7]. Further, the kon reads like this: (pH 7.4, read-out: ka) 200000 M⁻¹ s⁻¹; under setting [2], 140000 M⁻¹ s⁻¹; under setting [3], 180000 M⁻¹ s⁻¹; under setting [4], 220000 M⁻¹ s⁻¹.
As for `CC[C@H](C)[C@H](NC(=O)[C@H](N)Cc1ccc(O)cc1)C(=O)N[C@H]1CSSC[C@@H](C(=O)N(C)[C@H](C(N)=O)[C@@H](C)CC)NC(=O)[C@H](CCCNC(=N)N)NC(=O)[C@H](Cc2c[nH]cn2)NC(=O)[C@H](C)NC(=O)CNC(=O)[C@H](Cc2c[nH]c3ccccc23)NC(=O)[C@H](CC(=O)O)NC(=O)[C@H](CCC(N)=O)NC(=O)[C@H](Cc2cn(C)c3ccccc23)NC(=O)[C@H](C(C)C)NC1=O` [Cp40 Sar9G], the Kd under setting [1] amounted to 1.7 ± 0.7 nM, the Kd under setting [5] stood at 0.92 nM, the Kd under setting [6] came out at 1.39 nM and the Kd under setting [7] was determined as 2.63 nM. Further, the kon by setting is: (pH 7.4, read-out: ka) 900000 ± 400000 M⁻¹ s⁻¹; under setting [2], 1.29e+06 M⁻¹ s⁻¹; under setting [3], 1.1e+06 M⁻¹ s⁻¹; under setting [4], 360000 M⁻¹ s⁻¹.
